Data reported in patent publication US20190192521A1, “Methods of Treating Arid1A-Mutated Cancers With HDAC6 Inhibitors and EZH2 Inhibitors” (The Wistar Institute of Anatomy and Biology, priority 2016, published 2019).

Key:
[1] = system: primary clear cell ovarian tumour cultures with (VOA4841) and without (XVOA295) ARID1A expression; test: colony formation / dose response, primary clear cell ovarian tumour cultures; assay type: cell-based, human
Experimental: FIG. 71 illustrates the HDAC6 inhibitor ACY1215 dose response curves of primary clear cell ovarian tumour cultures with (VOA4841) and without (XVOA295) ARID1A expression; n=3 independent experiments.
Cell lines and 3D culture conditions. The protocol for using primary cultures of human ovarian clear cell tumour cells was approved by the University of British Columbia Institutional Review Board. The primary tumour cells were cultured in RPMI 1640 supplemented with 10% fetal bovine serum (FBS) and 1% penicillin/streptomycin. Ovarian clear cell carcinoma cell lines (TOV21G, OVTOKO, OVISE and RMG1) were purchased from JCRB (Japanese Collection of Research Bioresources) Cell Bank. TOV21G, OVTOKO, and OVISE cells were cultured in RPMI 1640 supplemented with 10% fetal bovine serum (FBS) and 1% penicillin/streptomycin. RMG1 cells were cultured in 1:1 Dulbecco's modified Eagle's medium (DMEM):F12 supplemented with 10% FBS. Viral packaging cells were cultured in DMEM supplemented with 10% FBS at 37° C. supplied with 5% CO2. Cells lines are authenticated at The Wistar Institute's Genomics Facility using short tandem repeat DNA profiling. Regular Mycoplasma testing was performed using LookOut Mycoplasma PCR detection (Sigma-Aldrich Co.). […]
Colony formation assays were performed as follows. […] Integrated density was measured using NIH ImageJ software.

[2] = system: ARID1A-mutated TOV21G cells; test: apoptosis and growth inhibition with or without p53 knockdown, TOV21G; assay type: cell-based, human
Experimental: Growth inhibition was calculated based on integrated density as measured in NIH ImageJ, and values were normalized to vehicle control. Data is representative of 3 independent experiments. Error bars represent S.E.M. The p-value was calculated via two-tailed t-test.
FIG. 91 illustrates dose responsive curves of the indicated cells treated with the HDAC6 inhibitor ACY1215; ARID1A wildtype RMG1 and OVCA429 cells were used as controls for comparison; n=4 independent experiments; error bars represent S.E.M. P-value calculated via two-tailed t-test.
FIG. 92 illustrates ARID1A-mutated TOV21G with or without p53 knockdown treated with ACY1215 (1.25 μM) or DMSO controls for 48 hours; percent apoptosis was quantified by FACS analysis based on Annexin V staining; n=3 independent experiments.
FIG. 97 illustrates ARID1A-mutated TOV21G cells with or without endogenous p53 knockdown by a shp53 that targets the 3′ UTR […] region of the human TP53 gene together with a lentivirus encoding a control, wildtype p53 or a p53K12OR mutant—the percentage of surviving cells of the indicated cells treated with ACY1215 was determined by colony formation assay; n=4 independent experiments.
Annexin V and mitochondria membrane potentials were measured as follows. Phosphatidylserine externalization was detected using an Annexin V staining kit (Life Technologies) following the manufacturer's instructions. […]

O=C(CCCCCCNC(=O)c1cnc(N(c2ccccc2)c2ccccc2)nc1)NO [rocilinostat, 2-(diphenylamino)-N-(7-(hydroxyamino)-7-oxoheptyl)pyrimidine-5-carboxamide]
IC50 values in primary cells [1]: comparable to those observed in cell lines | sensitivity of cultures without ARID1A expression compared to those with ARID1A expression [1]: more sensitive | effect of p53 knockdown on apoptosis and growth inhibition induced by the compound [2]: significantly impaired the apoptosis and growth inhibition | rescue of p53 knockdown-mediated impairment of compound-induced growth inhibition ([2]; wildtype p53 or p53K120R): wildtype p53 but not the p53K120R mutant rescued
